From patent US10519152B2, “Compounds and their use in treating cancer” (AstraZeneca AB, priority 2017, dated 2019)

How the values were obtained:
[1] = molecular target: T1, recombinant human Estrogen Receptor alpha ligand binding domain, residues 307-554 (ER alpha-LBD (GST)) (Homo sapiens, UniProt P03372); assay: ERα binding assay (LanthaScreen TR-FRET competition); conditions: TR-FRET competition with Fluormone ES2 tracer, 4 hours at room temperature; single experiment or average of two or more
T1 construct: made in house
T1 sequence (P03372 307-554): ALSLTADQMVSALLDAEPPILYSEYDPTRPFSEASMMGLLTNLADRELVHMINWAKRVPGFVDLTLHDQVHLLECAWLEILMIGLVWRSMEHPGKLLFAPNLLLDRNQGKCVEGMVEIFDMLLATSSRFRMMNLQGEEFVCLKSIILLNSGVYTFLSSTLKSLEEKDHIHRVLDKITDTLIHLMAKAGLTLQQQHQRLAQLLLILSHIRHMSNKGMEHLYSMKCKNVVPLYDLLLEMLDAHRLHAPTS

[2] = molecular target: T2, Estrogen Receptor (ERα) in MCF-7 human ductal carcinoma breast cell line (Homo sapiens, UniProt P03372); assay: MCF-7 ER degradation assay (cell based immuno-fluorescence); conditions: MCF-7 cells, 18-22 hours incubation, 50% reduction of ERα expression; single experiment or average of two or more; read-out: MCF-7 ER degradation IC50
T2 construct: endogenous in cells; host or cells: MCF-7
T2 sequence (P03372 1-595): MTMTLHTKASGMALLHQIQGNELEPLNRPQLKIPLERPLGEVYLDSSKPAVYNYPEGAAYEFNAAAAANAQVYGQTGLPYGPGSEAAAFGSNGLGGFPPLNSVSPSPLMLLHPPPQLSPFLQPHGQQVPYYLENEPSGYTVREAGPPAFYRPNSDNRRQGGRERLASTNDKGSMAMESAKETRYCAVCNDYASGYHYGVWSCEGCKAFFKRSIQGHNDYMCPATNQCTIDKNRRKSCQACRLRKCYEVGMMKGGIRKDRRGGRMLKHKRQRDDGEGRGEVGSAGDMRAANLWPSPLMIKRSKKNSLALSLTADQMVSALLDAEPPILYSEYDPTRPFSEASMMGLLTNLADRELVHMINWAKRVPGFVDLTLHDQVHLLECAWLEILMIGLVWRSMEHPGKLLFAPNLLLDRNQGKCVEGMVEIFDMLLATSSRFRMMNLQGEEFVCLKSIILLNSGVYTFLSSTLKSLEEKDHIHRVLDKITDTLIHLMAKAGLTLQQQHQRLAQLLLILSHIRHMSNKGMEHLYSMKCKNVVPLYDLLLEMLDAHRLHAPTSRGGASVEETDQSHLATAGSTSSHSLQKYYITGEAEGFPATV
Summary of the method: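 MCF-7 human ductal carcinoma breast cells were seeded at 3.75×10^4 cells per mL (40 μL per well) in 384 well plates with phenol red free DMEM containing 2 mM L-Glutamine and 5% (v/v) Charcoal/Dextran treated foetal calf serum. After overnight culture, compounds were acoustically dispensed, incubated 18-22 hours, then cells were formaldehyde-fixed and immunostained for ERα.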

Cc1ncsc1-c1ccc(CNC(=O)[C@@H]2C[C@@H](O)CN2C(=O)[C@@H](NC(=O)C(C)(C)OCCCCCCOc2cc(F)c([C@@H]3c4[nH]c5ccccc5c4C[C@@H](C)N3CC(C)(C)F)c(F)c2)C(C)(C)C)cc1 [Example 117, (2S,4R)-1-((S)-2-(2-((6-(3,5-Difluoro-4-((1R,3R)-2-(2-fluoro-2-methylpropyl)-3-methyl-2,3,4,9-tetrahydro-1H-pyrido[3,4-b]indol-1-yl)phenoxy)hexyl)oxy)-2-methylpropanamido)-3,3-dimethylbutanoyl)-4-hydroxy-N-(4-(4-methylthiazol-5-yl)benzyl)pyrrolidine-2-carboxamide]
IC50 [1]: 800 pM | DC50 [2]: 22000 pM

Cc1ncsc1-c1ccc(CNC(=O)[C@@H]2C[C@@H](O)CN2C(=O)[C@@H](NC(=O)COCc2cccnc2COc2cc(F)c([C@@H]3c4[nH]c5ccccc5c4C[C@@H](C)N3CC(C)(C)F)c(F)c2)C(C)(C)C)cc1 [Example 133, (2S,4R)-1-((S)-2-(2-((2-((3,5-Difluoro-4-((1R,3R)-2-(2-fluoro-2-methylpropyl)-3-methyl-2,3,4,9-tetrahydro-1H-pyrido[3,4-b]indol-1-yl)phenoxy)methyl)pyridin-3-yl)methoxy)acetamido)-3,3-dimethylbutanoyl)-4-hydroxy-N-(4-(4-methylthiazol-5-yl)benzyl)pyrrolidine-2-carboxamide]
IC50 [1]: 700 pM | DC50 [2]: 800 pM

Cc1ncsc1-c1ccc(CNC(=O)[C@@H]2C[C@@H](O)CN2C(=O)[C@@H](NC(=O)CCCCCNCCCCOc2cc(F)c([C@@H]3c4[nH]c5ccccc5c4C[C@@H](C)N3CC(C)(C)F)c(F)c2)C(C)(C)C)cc1 [Example 145, (2S,4R)-1-((S)-2-(6-((4-(3,5-Difluoro-4-((1R,3R)-2-(2-fluoro-2-methylpropyl)-3-methyl-2,3,4,9-tetrahydro-1H-pyrido[3,4-b]indol-1-yl)phenoxy)butyl)amino)hexanamido)-3,3-dimethylbutanoyl)-4-hydroxy-N-(4-(4-methylthiazol-5-yl)benzyl)pyrrolidine-2-carboxamide]
IC50 [1]: 1100 pM | DC50 [2]: 2700 pM

Cc1ncsc1-c1ccc(CNC(=O)[C@@H]2C[C@@H](O)CN2C(=O)[C@@H](NC(=O)CCCNCCCCCCOc2cc(F)c([C@@H]3c4[nH]c5ccccc5c4C[C@@H](C)N3CC(C)(C)F)c(F)c2)C(C)(C)C)cc1 [Example 151, (2S,4R)-1-((S)-2-(4-((6-(3,5-Difluoro-4-((1R,3R)-2-(2-fluoro-2-methylpropyl)-3-methyl-2,3,4,9-tetrahydro-1H-pyrido[3,4-b]indol-1-yl)phenoxy)hexyl)amino)butanamido)-3,3-dimethylbutanoyl)-4-hydroxy-N-(4-(4-methylthiazol-5-yl)benzyl)pyrrolidine-2-carboxamide]
IC50 [1]: 3600 pM | DC50 [2]: 54000 pM

Cc1ncsc1-c1ccc([C@H](C)NC(=O)[C@@H]2C[C@@H](O)CN2C(=O)[C@@H](NC(=O)COCCCOCCCCOc2cc(F)c([C@@H]3c4[nH]c5ccccc5c4C[C@@H](C)N3CC(C)(C)F)c(F)c2)C(C)(C)C)cc1 [Example 155, (2S,4R)-1-((S)-2-(2-(3-(4-(3,5-Difluoro-4-((1R,3R)-2-(2-fluoro-2-methylpropyl)-3-methyl-2,3,4,9-tetrahydro-1H-pyrido[3,4-b]indol-1-yl)phenoxy)butoxy)propoxy)acetamido)-3,3-dimethylbutanoyl)-4-hydroxy-N—((S)-1-(4-(4-methylthiazol-5-yl)phenyl)ethyl)pyrrolidine-2-carboxamide]
IC50 [1]: 300 pM | DC50 [2]: 700 pM
